Measured values: paper PMC5281649 (European Journal of Nuclear Medicine and Molecular Imaging, 2016)
Like-named read-outs stand apart in the source and are kept apart here.

Target: T1, brain MAO-B enzyme (Homo sapiens, UniProt P27338)
T1 sequence (P27338 1-520): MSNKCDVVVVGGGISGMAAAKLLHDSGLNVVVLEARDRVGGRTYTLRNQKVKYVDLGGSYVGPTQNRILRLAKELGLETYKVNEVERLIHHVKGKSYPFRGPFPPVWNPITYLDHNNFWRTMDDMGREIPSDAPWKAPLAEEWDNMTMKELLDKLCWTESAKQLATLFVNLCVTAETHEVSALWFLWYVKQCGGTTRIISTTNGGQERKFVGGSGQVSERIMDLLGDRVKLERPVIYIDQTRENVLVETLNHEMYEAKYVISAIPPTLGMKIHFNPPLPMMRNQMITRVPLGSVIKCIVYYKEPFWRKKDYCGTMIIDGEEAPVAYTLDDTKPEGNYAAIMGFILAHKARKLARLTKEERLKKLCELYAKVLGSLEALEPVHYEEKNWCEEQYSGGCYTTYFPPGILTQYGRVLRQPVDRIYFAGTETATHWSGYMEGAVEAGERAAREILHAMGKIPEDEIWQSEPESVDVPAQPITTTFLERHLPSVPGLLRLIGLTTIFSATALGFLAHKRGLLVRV
Experiment: PET with [11C]-L-deprenyl-D2: brain MAO-B inhibition after repeated oral sembragiline
Format: in vivo
Conditions: for receptor occupancy at 0.2 mg: 168 h; for receptor occupancy at 0.2 mg / receptor occupancy at 1 mg / [11C]-L-deprenyl-D2 λk3 post-dose / receptor occupancy at 5 mg / receptor occupancy at 0.1 mg: mean (range); for receptor occupancy at 0.2 mg / receptor occupancy at 1 mg / receptor occupancy at 5 mg / receptor occupancy at 0.1 mg: read-out: Occ (MAO-B occupancy); for receptor occupancy at 1 mg: 336 h; for receptor occupancy at 5 mg: 216 h; for receptor occupancy at 0.1 mg: 360 h
Procedure: The first dose was administered at the study centre under the supervision of study personnel. On subsequent study days, treatment compliance was assured by intake logs and tablet counting.
At baseline, each subject underwent a PET scan using [^11C]-L-deprenyl-D2 to measure MAO-B enzyme activity in the brain prior to their first dose of allocated medication. The second scan was performed at trough concentrations at steady state prior to the last drug administration. Before each scan, a cannula was inserted into a radial artery and another into an antecubital vein. A sterile phosphate buffer (pH = 7.4) containing radioligand was injected as a bolus over several seconds into the cubital vein.
A transmission scan was performed using three rotating ^68Ge rod sources. [^11C]-L-Deprenyl-D2 was injected intravenously as a bolus, and emission data were acquired over 63 min using the ECAT EXACT high-resolution system (Siemens Medical Solutions, Malvern, PA, USA). The injected radioactivity was targeted to approximately 300 MBq. The injected mass of deprenyl was to be ≤100 μg, and ≥50–100-fold lower than the typical administered dose of 5–10 mg deprenyl to patients with Parkinson’s disease. The framing was as follows: 9 frames x 10 s, 2 frames x 15 s, 3 frames x 20 s, 4 frames x 30 s, 4 frames x 60 s, 4 frames x 180 s, 7 frames x 360 s. Images were reconstructed using the standard filtered back-projection, with a 2-mm Hanning filter, a zoom factor of 2.17, and a 128 × 128 matrix, and were corrected for attenuation and scatter. A summation PET image was created for each subject and PET session by averaging across all frames. Time–activity curves were then extracted from selected ROIs.
Arterial blood samples were used for measurement of radioactivity in whole blood and plasma, as well as to determine the parent fraction of the radioligand, using a reversed-phase high-performance liquid chromatography method (Karolinska University Hospital, Solna, Stockholm, Sweden). A catheter was inserted in the radial artery, and arterial blood was collected continuously for 10 min using an automated blood sampling system at a speed of 5 mL/min. Discrete blood samples were drawn approximately 10, 15, 20, 30, 45 and 60 min after each injection of [^11C]-L-deprenyl-D2.
Time–activity data were analysed as previously described. Briefly, [^11C]-L-deprenyl-D2 was quantified by the two-tissue compartment model with three rate constants (K 1, k 2, k 3) using the PMOD 3.3 software package (PMOD Group, Zurich, Switzerland), where the tissue compartments represent the free plus non-specifically bound and specifically bound radiotracer. The outcome measure λk 3 was calculated as (K 1/k 2)*k 3, using a non-linear approach, and was used as an estimate for specific binding to MAO-B that was independent of perfusion. […] This is because λk3 is independent of perfusion and has better reproducibility than k3 alone.

[1] = EC subjects, 5 mg loading day 1 then 0.2 mg q.d. days 2–7, frontal cortex, N = 3
[2] = EC subjects, 5 mg loading day 1 then 0.2 mg q.d. days 2–7, hippocampus, N = 3
[3] = EC subjects, 5 mg loading day 1 then 0.2 mg q.d. days 2–7, parietal cortex, N = 3
[4] = EC subjects, 5 mg loading day 1 then 0.2 mg q.d. days 2–7, striatum, N = 3
[5] = EC subjects, 5 mg loading day 1 then 0.2 mg q.d. days 2–7, thalamus, N = 3
[6] = EC subjects, 5 mg loading day 1 then 0.2 mg q.d. days 2–7, whole brain, N = 3
[7] = EC subjects, 1 mg q.d. for 14 days, frontal cortex, N = 3
[8] = EC subjects, 1 mg q.d. for 14 days, hippocampus, N = 3
[9] = EC subjects, 1 mg q.d. for 14 days, parietal cortex, N = 3
[10] = EC subjects, 1 mg q.d. for 14 days, striatum, N = 3
[11] = EC subjects, 1 mg q.d. for 14 days, thalamus, N = 3
[12] = EC subjects, 1 mg q.d. for 14 days, whole brain, N = 3

MAO-B inhibition at trough (mean values) (1 mg, across all brain ROIs and study populations): 75–86%
MAO-B inhibition (overall range) (1 mg, six brain ROIs and study populations, overall): 71–88%
MAO-B inhibition (mean values) (5-mg dose, across brain ROIs): 76–86%
receptor occupancy at 0.2 mg [1]: 51.7%
receptor occupancy at 0.2 mg [2]: 51.6%
receptor occupancy at 0.2 mg [3]: 50.7%
receptor occupancy at 0.2 mg [4]: 56.1%
receptor occupancy at 0.2 mg [5]: 53.7%
receptor occupancy at 0.2 mg [6]: 49.1%
receptor occupancy at 1 mg [7]: 76.2%
receptor occupancy at 1 mg [8]: 83.9%
receptor occupancy at 1 mg [9]: 76.1%
receptor occupancy at 1 mg [10]: 84.7%
receptor occupancy at 1 mg [11]: 85.7%
receptor occupancy at 1 mg [12]: 75.4%
[11C]-L-deprenyl-D2 λk3 post-dose (AD patients, 1 mg q.d. for 14 days, frontal cortex, N = 2): 0.04 (0.03–0.04)
[11C]-L-deprenyl-D2 λk3 post-dose (AD patients, 1 mg q.d. for 14 days, hippocampus, N = 2): 0.05 (0.05–0.05)
[11C]-L-deprenyl-D2 λk3 post-dose (AD patients, 1 mg q.d. for 14 days, parietal cortex, N = 2): 0.04 (0.03–0.05)
[11C]-L-deprenyl-D2 λk3 post-dose (AD patients, 1 mg q.d. for 14 days, striatum, N = 2): 0.04 (0.04–0.05)
[11C]-L-deprenyl-D2 λk3 post-dose (AD patients, 1 mg q.d. for 14 days, thalamus, N = 2): 0.04 (0.04–0.04)
[11C]-L-deprenyl-D2 λk3 post-dose (AD patients, 1 mg q.d. for 14 days, whole brain, N = 2): 0.04 (0.04–0.05)
[11C]-L-deprenyl-D2 λk3 post-dose (AD patients, 5 mg loading day 1 then 0.1 mg q.d. days 2–15, frontal cortex, N = 2): 0.07 (0.06–0.08)
[11C]-L-deprenyl-D2 λk3 post-dose (AD patients, 5 mg loading day 1 then 0.1 mg q.d. days 2–15, hippocampus, N = 2): 0.11 (0.10–0.11)
[11C]-L-deprenyl-D2 λk3 post-dose (AD patients, 5 mg loading day 1 then 0.1 mg q.d. days 2–15, parietal cortex, N = 2): 0.07 (0.07–0.08)
[11C]-L-deprenyl-D2 λk3 post-dose (AD patients, 5 mg loading day 1 then 0.1 mg q.d. days 2–15, striatum, N = 2): 0.12 (0.11–0.13)
[11C]-L-deprenyl-D2 λk3 post-dose (AD patients, 5 mg loading day 1 then 0.1 mg q.d. days 2–15, whole brain, N = 2): 0.08 (0.08–0.09)
[11C]-L-deprenyl-D2 λk3 post-dose (AD patients, 5 mg loading day 1 then 0.2 mg q.d. days 2–7, frontal cortex, N = 3): 0.06 (0.05–0.07)
[11C]-L-deprenyl-D2 λk3 post-dose (AD patients, 5 mg loading day 1 then 0.2 mg q.d. days 2–7, hippocampus, N = 3): 0.07 (0.07–0.08)
[11C]-L-deprenyl-D2 λk3 post-dose (AD patients, 5 mg loading day 1 then 0.2 mg q.d. days 2–7, parietal cortex, N = 3): 0.06 (0.05–0.07)
[11C]-L-deprenyl-D2 λk3 post-dose (AD patients, 5 mg loading day 1 then 0.2 mg q.d. days 2–7, striatum, N = 3): 0.08 (0.08–0.08)
[11C]-L-deprenyl-D2 λk3 post-dose (AD patients, 5 mg loading day 1 then 0.2 mg q.d. days 2–7, thalamus, N = 3): 0.07 (0.07–0.07)
[11C]-L-deprenyl-D2 λk3 post-dose (AD patients, 5 mg loading day 1 then 0.2 mg q.d. days 2–7, whole brain, N = 3): 0.06 (0.06–0.07)
[11C]-L-deprenyl-D2 λk3 post-dose (AD patients, 5 mg q.d. for 6–9 days, frontal cortex, N = 2): 0.04 (0.04–0.04)
[11C]-L-deprenyl-D2 λk3 post-dose (AD patients, 5 mg q.d. for 6–9 days, hippocampus, N = 2): 0.04 (0.03–0.05)
[11C]-L-deprenyl-D2 λk3 post-dose (AD patients, 5 mg q.d. for 6–9 days, parietal cortex, N = 2): 0.04 (0.03–0.04)
[11C]-L-deprenyl-D2 λk3 post-dose (AD patients, 5 mg q.d. for 6–9 days, striatum, N = 2): 0.05 (0.04–0.05)
[11C]-L-deprenyl-D2 λk3 post-dose (AD patients, 5 mg q.d. for 6–9 days, whole brain, N = 2): 0.04 (0.04–0.05)
[11C]-L-deprenyl-D2 λk3 post-dose [7]: 0.04 (0.04–0.05)
[11C]-L-deprenyl-D2 λk3 post-dose [8]: 0.04 (0.03–0.05)
[11C]-L-deprenyl-D2 λk3 post-dose [9]: 0.04 (0.04–0.05)
[11C]-L-deprenyl-D2 λk3 post-dose [10]: 0.05 (0.04–0.06)
[11C]-L-deprenyl-D2 λk3 post-dose [11]: 0.05 (0.04–0.05)
[11C]-L-deprenyl-D2 λk3 post-dose [12]: 0.05 (0.04–0.05)
[11C]-L-deprenyl-D2 λk3 post-dose [1]: 0.07 (0.06–0.09)
[11C]-L-deprenyl-D2 λk3 post-dose [2]: 0.11 (0.09–0.13)
[11C]-L-deprenyl-D2 λk3 post-dose [3]: 0.07 (0.06–0.09)
[11C]-L-deprenyl-D2 λk3 post-dose [4]: 0.12 (0.09–0.14)
[11C]-L-deprenyl-D2 λk3 post-dose [5]: 0.12 (0.09–0.13)
[11C]-L-deprenyl-D2 λk3 post-dose [6]: 0.08 (0.07–0.10)
receptor occupancy at 0.2 mg (human, AD patients, 5 mg loading day 1 then 0.2 mg q.d. days 2–7, frontal cortex, N = 3): 70.2%
receptor occupancy at 0.2 mg (human, AD patients, 5 mg loading day 1 then 0.2 mg q.d. days 2–7, hippocampus, N = 3): 76.1%
receptor occupancy at 0.2 mg (human, AD patients, 5 mg loading day 1 then 0.2 mg q.d. days 2–7, parietal cortex, N = 3): 68.7%
receptor occupancy at 0.2 mg (human, AD patients, 5 mg loading day 1 then 0.2 mg q.d. days 2–7, striatum, N = 3): 77.1%
receptor occupancy at 0.2 mg (human, AD patients, 5 mg loading day 1 then 0.2 mg q.d. days 2–7, thalamus, N = 3): 76.8%
receptor occupancy at 0.2 mg (human, AD patients, 5 mg loading day 1 then 0.2 mg q.d. days 2–7, whole brain, N = 3): 68.9%
receptor occupancy at 5 mg (human, AD patients, 5 mg q.d. for 6–9 days, frontal cortex, N = 2): 77.8%
receptor occupancy at 5 mg (human, AD patients, 5 mg q.d. for 6–9 days, hippocampus, N = 2): 83.3%
receptor occupancy at 5 mg (human, AD patients, 5 mg q.d. for 6–9 days, parietal cortex, N = 2): 78.1%
receptor occupancy at 5 mg (human, AD patients, 5 mg q.d. for 6–9 days, striatum, N = 2): 84.8%
receptor occupancy at 5 mg (human, AD patients, 5 mg q.d. for 6–9 days, thalamus, N = 2): 86.3%
receptor occupancy at 5 mg (human, AD patients, 5 mg q.d. for 6–9 days, whole brain, N = 2): 76.3%
receptor occupancy at 1 mg (human, AD patients, 1 mg q.d. for 14 days, frontal cortex, N = 2): 79.7%
receptor occupancy at 1 mg (human, AD patients, 1 mg q.d. for 14 days, hippocampus, N = 2): 79.2%
receptor occupancy at 1 mg (human, AD patients, 1 mg q.d. for 14 days, parietal cortex, N = 2): 78%
receptor occupancy at 1 mg (human, AD patients, 1 mg q.d. for 14 days, striatum, N = 2): 85%
receptor occupancy at 1 mg (human, AD patients, 1 mg q.d. for 14 days, thalamus, N = 2): 86%
receptor occupancy at 1 mg (human, AD patients, 1 mg q.d. for 14 days, whole brain, N = 2): 75.5%
receptor occupancy at 0.1 mg (human, AD patients, 5 mg loading day 1 then 0.1 mg q.d. days 2–15, frontal cortex, N = 2): 56.9%
receptor occupancy at 0.1 mg (human, AD patients, 5 mg loading day 1 then 0.1 mg q.d. days 2–15, hippocampus, N = 2): 53.8%
receptor occupancy at 0.1 mg (human, AD patients, 5 mg loading day 1 then 0.1 mg q.d. days 2–15, parietal cortex, N = 2): 55.6%
receptor occupancy at 0.1 mg (human, AD patients, 5 mg loading day 1 then 0.1 mg q.d. days 2–15, striatum, N = 2): 59.9%
receptor occupancy at 0.1 mg (human, AD patients, 5 mg loading day 1 then 0.1 mg q.d. days 2–15, thalamus, N = 2): 60.4%
receptor occupancy at 0.1 mg (human, AD patients, 5 mg loading day 1 then 0.1 mg q.d. days 2–15, whole brain, N = 2): 55.2%
Structure (SMILES): CC(=O)N[C@H]1CC(=O)N(c2ccc(OCc3cccc(F)c3)cc2)C1 [sembragiline]
